Data set [1] can be described thus: Clearance in Beagle dog at 0.2 mg/kg, iv. Set-up: dose 0.2 mg/kg, route intravenous. Particulars: in vivo. The class given is ADME, organism-based, Canis lupus familiaris.
A short description of data set [2]: Half life in Beagle dog at 0.2 mg/kg, iv. The data set is classed as ADME, organism-based, Canis lupus familiaris. The note with it: in vivo. Set-up: dose 0.2 mg/kg, route intravenous.
The nature of data set [3]: Aqueous solubility at pH 2. The data set is classed as physicochemical.
A short description of data set [4]: AUC in ovariectomized Sprague-Dawley rat at 1 mg/kg, sc. Particulars: female, plasma.
The nature of data set [5]: AUC in orchidectomized Sprague-Dawley rat at 10 mg/kg, sc. More on the design: dose 10 mg/kg, route subcutaneous. The note with it: male, plasma. The data set is classed as ADME, organism-based.
Data set [6] can be described thus: AUC in ovariectomized Sprague-Dawley rat at 10 mg/kg, sc. More on the design: dose 10 mg/kg, route subcutaneous. Particulars: female, plasma. The class given is ADME, organism-based.
Data set [7] can be described thus: Oral bioavailability in Beagle dog at 1 mg/kg. The data set is classed as ADME, organism-based, Canis lupus familiaris. Particulars: in vivo.
Data set [8] is described as follows: AUC in orchidectomized Sprague-Dawley rat at 30 mg/kg, sc. The class given is ADME, organism-based. Set-up: dose 30 mg/kg, route subcutaneous. The note with it: male, plasma.
Data set [9] in a line: in vivo. Particulars: male, Sprague-Dawley, rat, plasma, sc, 3 mg/kg.
The nature of data set [10]: in vivo. The note with it: female, Sprague-Dawley, rat, plasma, sc, 3 mg/kg.

We go through 13 compounds from ChEMBL document CHEMBL1153470, “Design, synthesis, and biological evaluation of 16-substituted 4-azasteroids as tissue-selective androgen receptor modulators (SARMs)” (J Med Chem, 2009).

In brackets after ≈: the same amount, converted by molar mass.

For `C[C@@H]1C[C@H]2[C@@H]3CC[C@H]4N(C)C(=O)C=C[C@]4(C)[C@H]3CC[C@]2(C)[C@H]1O`, in [1], the clearance (commonly a measure of how efficiently the substance is removed, as volume per time) came out at 20.2 mL/min/kg. Further, the half-life (commonly how long it takes for the measured level to halve) in [2] was 1 h.

Turning to `COC[C@@H]1C[C@H]2[C@@H]3CC[C@H]4N(C)C(=O)C=C[C@]4(C)[C@H]3CC[C@]2(C)[C@H]1O`, the clearance in data set [1] worked out at 11 mL/min/kg. The compound also showed a half-life in [2] of 1.5 h.

On to `Cc1ncc(/C=C2\C[C@H]3[C@@H]4CC[C@H]5N(C)C(=O)C=C[C@]5(C)[C@H]4CC[C@]3(C)[C@H]2O)cn1`, for which the clearance in [1] is 1.5 mL/min/kg. In addition, the solubility – broadly, the dissolved amount per volume that the medium holds – in [3] came out at 230 µg/mL (≈ 564 µM). The AUC (commonly the area under the concentration-time curve, a measure of exposure) in data set [4] amounted to 17 µM·h. In addition, in [2], the half-life is 18.7 h.

Compound `CN1C(=O)C=C[C@]2(C)[C@H]3CC[C@]4(C)[C@@H](O)/C(=C/c5cncnc5)C[C@H]4[C@@H]3CC[C@@H]12` showed a clearance in [1] of 15.3 mL/min/kg. Moreover, the AUC in [5] came out at 4.3 µM·h; in data set [6] it was 17 µM·h; in data set [8], 16.2 µM·h. This compound also had a solubility in data set [3] of 570 µg/mL (≈ 1450 µM). Besides, in data set [2], the half-life is 2.3 h. Moreover, the bioavailability (usually the share of a dose that reaches the circulation, judged against a reference dose that is usually intravenous) in [7] turned out to be 51%.

Turning to `CN1C(=O)C=C[C@]2(C)[C@H]3CC[C@]4(C)[C@@H](O)[C@H](Cc5cccc(F)c5)C[C@H]4[C@@H]3CC[C@@H]12`, in [1], the clearance worked out at 22 mL/min/kg. Further, the half-life in data set [2] was 3 h.

As for `CN1C(=O)C=C[C@]2(C)[C@H]3CC[C@]4(C)[C@@H](O)/C(=C/c5cc(F)cc(F)c5)C[C@H]4[C@@H]3CC[C@@H]12`, the clearance in data set [1] turned out to be 6.8 mL/min/kg. The compound further gave a half-life in [2] of 9.1 h.

`C/C=C1\C[C@H]2[C@@H]3CC[C@H]4N(C)C(=O)C=C[C@]4(C)[C@H]3CC[C@]2(C)[C@H]1O` displayed a clearance in [1] of 42.8 mL/min/kg. The half-life in [2] was 1 h.

In data set [1], `CN1C(=O)C=C[C@]2(C)[C@H]3CC[C@]4(C)[C@@H](O)CC[C@H]4[C@@H]3CC[C@@H]12` displayed a clearance of 32.3 mL/min/kg. In data set [2], this compound had a half-life of 0.7 h.

Turning to `COc1ncc(/C=C2\C[C@H]3[C@@H]4CC[C@H]5N(C)C(=O)C=C[C@]5(C)[C@H]4CC[C@]3(C)[C@H]2O)cn1`, the clearance in data set [1] is 4.6 mL/min/kg. The half-life in [2] is 12.7 h.

`CN1C(=O)C=C[C@]2(C)[C@H]3CC[C@]4(C)[C@@H](O)/C(=C/c5cccc(F)c5)C[C@H]4[C@@H]3CC[C@@H]12` came in with a clearance in data set [1] of 15.2 mL/min/kg. In addition, the half-life in data set [2] was 4.9 h.

Consider `CN1C(=O)C=C[C@]2(C)[C@H]3CC[C@]4(C)[C@@H](O)/C(=C/c5cccnc5)C[C@H]4[C@@H]3CC[C@@H]12`, for which the clearance in data set [1] stood at 5 mL/min/kg. This compound had a half-life in data set [2] of 17.1 h. Also, in data set [7], the bioavailability is 21%.

For `CNc1ncc(/C=C2\C[C@H]3[C@@H]4CC[C@H]5N(C)C(=O)C=C[C@]5(C)[C@H]4CC[C@]3(C)[C@H]2O)cn1`, the clearance in data set [1] stood at 0.8 mL/min/kg. In data set [2], this compound had a half-life of 10.9 h.

For the compound `C[C@]12CCC(=O)C[C@@H]1CC[C@@H]1[C@@H]2CC[C@]2(C)[C@@H](O)CC[C@@H]12` [STANOLONE], the values for the AUC in the data set “in vivo [9]” and in the data set “in vivo [10]” were 0.08 µM·h and 0.02 µM·h, respectively.
